Assay results from the kinase profiling compilation of Christmann-Franck et al. (2016).

What was measured:
Test in all cases: radiometric filter-binding kinase assay, Kinase HotSpot
Settings in all cases: compound 0.5 µM; ATP 10 µM
[1] = target: EPHB2 (human) (UniProt P29323)
[2] = target: STK24 (human) (UniProt Q9Y6E0)
[3] = target: WNK3 (human) (UniProt Q9BYP7)
[4] = target: EPHB1 (human) (UniProt P54762)
[5] = target: PKN2 (human) (UniProt Q16513)
[6] = target: LTK (human) (UniProt P29376)
[7] = target: CDC42BPB (human) (UniProt Q9Y5S2)
[8] = target: CAMK2A (human) (UniProt Q9UQM7)
Chain of CAMK2A (human) (Q9UQM7 whole entry, looked up): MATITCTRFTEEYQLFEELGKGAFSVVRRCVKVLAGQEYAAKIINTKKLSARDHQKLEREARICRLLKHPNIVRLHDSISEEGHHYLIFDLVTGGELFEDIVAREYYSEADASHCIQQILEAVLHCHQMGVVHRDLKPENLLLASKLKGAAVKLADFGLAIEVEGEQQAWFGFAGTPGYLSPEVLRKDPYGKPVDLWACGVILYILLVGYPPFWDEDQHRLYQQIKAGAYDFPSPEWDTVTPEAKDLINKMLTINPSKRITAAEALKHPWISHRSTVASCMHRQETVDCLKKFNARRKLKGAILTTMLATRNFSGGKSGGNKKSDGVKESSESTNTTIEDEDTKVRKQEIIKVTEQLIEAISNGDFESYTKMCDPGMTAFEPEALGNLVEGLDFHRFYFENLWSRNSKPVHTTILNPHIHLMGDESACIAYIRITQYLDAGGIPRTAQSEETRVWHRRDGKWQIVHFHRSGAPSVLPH

[9] = target: SRMS (human) (UniProt Q9H3Y6)
[10] = target: MET (human) (UniProt P08581)
[11] = target: MAPK9 (human) (UniProt P45984)
[12] = target: MAP4K2 (human) (UniProt Q12851)
[13] = target: MARK4 (human) (UniProt Q96L34)
[14] = target: AURKA (human) (UniProt O14965)
Chain of AURKA (human) (O14965 whole entry, looked up): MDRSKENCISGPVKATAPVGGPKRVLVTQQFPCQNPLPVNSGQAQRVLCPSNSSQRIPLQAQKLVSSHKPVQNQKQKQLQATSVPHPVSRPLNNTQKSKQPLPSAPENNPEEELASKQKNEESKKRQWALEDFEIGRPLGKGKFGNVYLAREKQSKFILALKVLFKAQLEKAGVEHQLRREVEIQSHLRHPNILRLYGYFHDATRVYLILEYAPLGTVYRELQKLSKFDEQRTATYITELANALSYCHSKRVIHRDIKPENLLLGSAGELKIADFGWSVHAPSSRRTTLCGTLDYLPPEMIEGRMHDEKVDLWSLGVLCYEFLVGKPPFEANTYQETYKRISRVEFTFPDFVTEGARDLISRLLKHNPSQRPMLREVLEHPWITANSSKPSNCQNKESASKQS

[15] = target: CDK5 CDK5R1 p35 (human) (UniProt Q00535+Q15078)
[16] = target: JAK1 JH1 catalytic (human) (UniProt P23458)
Chain of JAK1 JH1 catalytic (human) (P23458 whole entry, looked up): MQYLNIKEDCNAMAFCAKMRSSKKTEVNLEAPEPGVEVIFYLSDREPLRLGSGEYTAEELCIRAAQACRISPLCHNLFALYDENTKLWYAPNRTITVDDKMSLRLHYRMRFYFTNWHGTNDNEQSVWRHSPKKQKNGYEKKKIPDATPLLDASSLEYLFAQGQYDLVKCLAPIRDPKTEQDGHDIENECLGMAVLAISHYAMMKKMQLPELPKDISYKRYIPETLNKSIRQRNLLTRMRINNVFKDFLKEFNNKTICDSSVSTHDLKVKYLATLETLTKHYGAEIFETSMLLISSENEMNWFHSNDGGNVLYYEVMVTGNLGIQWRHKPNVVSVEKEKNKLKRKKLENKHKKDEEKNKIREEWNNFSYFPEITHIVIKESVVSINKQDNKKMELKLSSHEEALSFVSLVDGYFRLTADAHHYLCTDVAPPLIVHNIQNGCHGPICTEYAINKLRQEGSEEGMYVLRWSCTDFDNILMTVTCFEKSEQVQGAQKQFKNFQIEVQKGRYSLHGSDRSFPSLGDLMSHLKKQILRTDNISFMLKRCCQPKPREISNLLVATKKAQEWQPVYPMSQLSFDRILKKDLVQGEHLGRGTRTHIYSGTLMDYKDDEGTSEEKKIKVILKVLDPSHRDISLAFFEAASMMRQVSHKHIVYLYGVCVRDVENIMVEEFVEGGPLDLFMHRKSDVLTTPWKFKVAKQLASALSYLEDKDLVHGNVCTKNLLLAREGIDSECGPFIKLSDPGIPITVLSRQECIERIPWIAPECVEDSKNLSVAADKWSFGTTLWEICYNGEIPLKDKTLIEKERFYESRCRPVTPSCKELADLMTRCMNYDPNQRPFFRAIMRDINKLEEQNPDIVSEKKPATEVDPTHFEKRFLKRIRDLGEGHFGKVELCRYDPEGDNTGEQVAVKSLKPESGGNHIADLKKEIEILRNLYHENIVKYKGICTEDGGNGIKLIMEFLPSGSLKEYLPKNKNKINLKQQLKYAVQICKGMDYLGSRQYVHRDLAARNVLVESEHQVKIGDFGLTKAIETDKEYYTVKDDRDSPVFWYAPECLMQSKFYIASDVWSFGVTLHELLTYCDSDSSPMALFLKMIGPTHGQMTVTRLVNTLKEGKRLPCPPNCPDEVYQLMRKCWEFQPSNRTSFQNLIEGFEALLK

[17] = target: MYLK2 (human) (UniProt Q9H1R3)
[18] = target: IGF1R (human) (UniProt P08069)
[19] = target: INSRR (human) (UniProt P14616)
[20] = target: CSNK2A2 (human) (UniProt P19784)
Chain of CSNK2A2 (human) (P19784 whole entry, looked up): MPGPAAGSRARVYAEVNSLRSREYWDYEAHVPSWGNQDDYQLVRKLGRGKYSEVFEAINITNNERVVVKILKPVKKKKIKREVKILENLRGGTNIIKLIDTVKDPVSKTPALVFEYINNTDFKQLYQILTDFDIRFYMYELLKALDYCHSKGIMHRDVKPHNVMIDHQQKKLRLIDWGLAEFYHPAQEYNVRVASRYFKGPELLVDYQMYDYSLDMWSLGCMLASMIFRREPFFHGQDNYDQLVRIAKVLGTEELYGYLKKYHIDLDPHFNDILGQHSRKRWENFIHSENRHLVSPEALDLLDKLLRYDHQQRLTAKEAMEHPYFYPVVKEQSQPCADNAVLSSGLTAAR

[21] = target: DYRK1A (human) (UniProt Q13627)
[22] = target: PBK (human) (UniProt Q96KB5)
[23] = target: GSK3A (human) (UniProt P49840)
Chain of GSK3A (human) (P49840 whole entry, looked up): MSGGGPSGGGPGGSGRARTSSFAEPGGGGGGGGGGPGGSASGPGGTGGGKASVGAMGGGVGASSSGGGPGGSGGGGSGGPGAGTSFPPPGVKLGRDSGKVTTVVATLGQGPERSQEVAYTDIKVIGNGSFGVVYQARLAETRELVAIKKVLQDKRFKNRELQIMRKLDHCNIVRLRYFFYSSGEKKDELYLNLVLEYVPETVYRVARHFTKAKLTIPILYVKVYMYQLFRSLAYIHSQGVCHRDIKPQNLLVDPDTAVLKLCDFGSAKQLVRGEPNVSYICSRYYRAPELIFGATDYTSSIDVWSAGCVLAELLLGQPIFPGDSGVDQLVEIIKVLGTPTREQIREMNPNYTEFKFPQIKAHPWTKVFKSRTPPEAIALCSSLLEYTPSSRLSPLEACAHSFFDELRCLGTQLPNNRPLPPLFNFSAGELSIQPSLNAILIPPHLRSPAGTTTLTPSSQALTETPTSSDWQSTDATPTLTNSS

[24] = target: LRRK2 (human) (UniProt Q5S007)
[25] = target: BRAF (human) (UniProt P15056)
Chain of BRAF (human) (P15056 whole entry, looked up): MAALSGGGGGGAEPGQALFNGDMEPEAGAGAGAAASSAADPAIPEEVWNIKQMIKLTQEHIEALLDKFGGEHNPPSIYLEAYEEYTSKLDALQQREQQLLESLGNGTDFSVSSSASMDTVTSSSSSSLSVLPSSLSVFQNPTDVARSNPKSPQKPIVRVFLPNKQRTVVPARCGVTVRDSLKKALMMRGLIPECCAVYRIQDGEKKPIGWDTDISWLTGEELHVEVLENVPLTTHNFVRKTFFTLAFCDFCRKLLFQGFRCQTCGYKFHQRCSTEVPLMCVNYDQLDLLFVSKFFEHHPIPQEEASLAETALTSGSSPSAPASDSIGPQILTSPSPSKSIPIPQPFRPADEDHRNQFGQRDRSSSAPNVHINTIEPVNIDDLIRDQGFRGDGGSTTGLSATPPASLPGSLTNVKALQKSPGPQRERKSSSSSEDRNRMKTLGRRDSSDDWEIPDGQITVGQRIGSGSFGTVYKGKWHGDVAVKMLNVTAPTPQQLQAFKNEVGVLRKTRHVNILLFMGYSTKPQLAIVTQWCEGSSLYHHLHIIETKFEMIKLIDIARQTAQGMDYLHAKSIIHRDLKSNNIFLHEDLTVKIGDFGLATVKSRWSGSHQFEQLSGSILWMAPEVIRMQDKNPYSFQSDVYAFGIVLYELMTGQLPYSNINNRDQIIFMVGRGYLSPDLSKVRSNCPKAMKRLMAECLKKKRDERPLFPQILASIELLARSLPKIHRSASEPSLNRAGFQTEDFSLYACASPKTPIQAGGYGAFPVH

[26] = target: MAP3K5 (human) (UniProt Q99683)
[27] = target: FRK (human) (UniProt P42685)
[28] = target: MAP3K9 (human) (UniProt P80192)
[29] = target: CSNK1G1 (human) (UniProt Q9HCP0)
[30] = target: PLK1 (human) (UniProt P53350)
[31] = target: MERTK (human) (UniProt Q12866)
[32] = target: AURKC (human) (UniProt Q9UQB9)
Chain of AURKC (human) (Q9UQB9 whole entry, looked up): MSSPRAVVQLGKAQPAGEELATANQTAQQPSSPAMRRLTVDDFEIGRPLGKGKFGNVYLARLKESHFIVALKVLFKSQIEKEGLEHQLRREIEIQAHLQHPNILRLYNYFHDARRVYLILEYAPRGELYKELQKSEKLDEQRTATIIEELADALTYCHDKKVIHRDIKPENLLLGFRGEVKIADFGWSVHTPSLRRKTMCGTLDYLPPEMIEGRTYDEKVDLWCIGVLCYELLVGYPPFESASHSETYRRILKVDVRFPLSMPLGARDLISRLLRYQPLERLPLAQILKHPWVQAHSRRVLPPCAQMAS

[33] = target: KDR (human) (UniProt P35968)
[34] = target: CDK4 CCND1 (human) (UniProt P24385+P11802)
Chain of CDK4 CCND1 (human) (P11802 whole entry, looked up): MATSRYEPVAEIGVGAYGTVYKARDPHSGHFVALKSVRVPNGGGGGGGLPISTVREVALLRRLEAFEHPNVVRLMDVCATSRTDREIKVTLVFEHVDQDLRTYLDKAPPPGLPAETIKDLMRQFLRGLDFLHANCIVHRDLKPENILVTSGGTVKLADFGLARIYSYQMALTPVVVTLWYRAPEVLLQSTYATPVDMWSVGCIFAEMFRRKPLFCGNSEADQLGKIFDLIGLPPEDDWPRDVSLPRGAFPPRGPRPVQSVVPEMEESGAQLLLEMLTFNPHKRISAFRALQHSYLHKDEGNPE
Chain of CDK4 CCND1 (human) (P24385 whole entry, looked up): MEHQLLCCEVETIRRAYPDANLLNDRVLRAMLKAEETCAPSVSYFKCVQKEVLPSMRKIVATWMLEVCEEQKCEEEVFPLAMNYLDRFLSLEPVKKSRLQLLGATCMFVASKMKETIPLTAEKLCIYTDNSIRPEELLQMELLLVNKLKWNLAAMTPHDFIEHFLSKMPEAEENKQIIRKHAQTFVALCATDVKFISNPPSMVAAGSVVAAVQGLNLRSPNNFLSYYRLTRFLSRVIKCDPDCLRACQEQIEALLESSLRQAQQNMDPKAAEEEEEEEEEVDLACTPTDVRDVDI

Chain of STK24 (human) (Q9Y6E0 whole entry, looked up): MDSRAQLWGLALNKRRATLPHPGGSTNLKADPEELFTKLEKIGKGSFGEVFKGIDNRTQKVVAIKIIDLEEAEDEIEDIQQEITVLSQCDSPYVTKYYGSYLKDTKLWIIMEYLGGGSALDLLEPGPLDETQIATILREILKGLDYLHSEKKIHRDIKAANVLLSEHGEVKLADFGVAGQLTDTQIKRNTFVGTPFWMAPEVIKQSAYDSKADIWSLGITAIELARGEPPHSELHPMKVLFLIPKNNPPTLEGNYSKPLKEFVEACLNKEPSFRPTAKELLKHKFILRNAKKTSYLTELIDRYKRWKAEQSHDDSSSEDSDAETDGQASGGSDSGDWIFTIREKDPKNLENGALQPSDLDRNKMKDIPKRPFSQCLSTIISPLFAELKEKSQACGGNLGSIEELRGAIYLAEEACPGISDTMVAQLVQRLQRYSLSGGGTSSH

## CC(C)[C@H](CO)Nc1nc(Nc2cc(N)cc(Cl)c2)c2ncn(C(C)C)c2n1
[1]
  residual activity: 73.6%
[2]
  residual activity: 75.9%
[3]
  residual activity: 76.9%
[4]
  residual activity: 59.2%
[5]
  residual activity: 98%
[6]
  residual activity: 103%
[7]
  residual activity: 98.4%
[8]
  residual activity: 83.9%
[9]
  residual activity: 96.8%
[10]
  residual activity: 109%
[11]
  residual activity: 99.8%
[12]
  residual activity: 90.7%
[13]
  residual activity: 71.2%
[14]
  residual activity: 80.5%
[15]
  residual activity: 0.133%
[16]
  residual activity: 101%
[17]
  residual activity: 99.5%
[18]
  residual activity: 73%
[19]
  residual activity: 70.8%
[20]
  residual activity: 106%
[21]
  residual activity: 57.1%
[22]
  residual activity: 75.6%
[23]
  residual activity: 101%
[24]
  residual activity: 101%
[25]
  residual activity: 97.5%
[26]
  residual activity: 95.6%
[27]
  residual activity: 70.3%
[28]
  residual activity: 7.81%
[29]
  residual activity: 26.4%
[30]
  residual activity: 54.9%
[31]
  residual activity: 79.7%
[32]
  residual activity: 91.9%
[33]
  residual activity: 101%

## Cn1sc(=O)n(Cc2ccccc2)c1=O
[1]
  residual activity: 88.5%
[2]
  residual activity: 105%
[3]
  residual activity: 101%
[4]
  residual activity: 100%
[5]
  residual activity: 97.2%
[6]
  residual activity: 101%
[7]
  residual activity: 96.4%
[8]
  residual activity: 106%
[9]
  residual activity: 96.2%
[10]
  residual activity: 64.2%
[12]
  residual activity: 119%
[13]
  residual activity: 85.1%
[14]
  residual activity: 104%
[15]
  residual activity: 90.1%
[16]
  residual activity: 103%
[17]
  residual activity: 101%
[18]
  residual activity: 97.1%
[19]
  residual activity: 99.3%
[20]
  residual activity: 98.5%
[21]
  residual activity: 92.6%
[22]
  residual activity: 107%
[23]
  residual activity: 94.5%
[34]
  residual activity: 98.2%
[24]
  residual activity: 91.9%
[25]
  residual activity: 98.1%
[26]
  residual activity: 91.5%
[27]
  residual activity: 112%
[28]
  residual activity: 99.4%
[29]
  residual activity: 95.2%
[30]
  residual activity: 97.2%
[31]
  residual activity: 92.8%
[32]
  residual activity: 98.8%
[33]
  residual activity: 89.4%

## O=C(Nc1cccc(Nc2cc(Nc3cccc(C(F)(F)F)c3)ncn2)c1)C1CC1
[1]
  residual activity: 88.6%
[2]
  residual activity: 97.1%
[3]
  residual activity: 100%
[4]
  residual activity: 100%
[5]
  residual activity: 95.9%
[6]
  residual activity: 96.8%
[7]
  residual activity: 97.4%
[8]
  residual activity: 104%
[9]
  residual activity: 95.2%
[10]
  residual activity: 103%
[11]
  residual activity: 98.2%
[12]
  residual activity: 116%
[13]
  residual activity: 101%
[14]
  residual activity: 107%
[15]
  residual activity: 99.5%
[16]
  residual activity: 103%
[17]
  residual activity: 98.9%
[18]
  residual activity: 105%
[19]
  residual activity: 101%
[20]
  residual activity: 94.9%
[21]
  residual activity: 104%
[22]
  residual activity: 103%
[23]
  residual activity: 101%
[34]
  residual activity: 103%
[24]
  residual activity: 95.6%
[25]
  residual activity: 96.8%
[26]
  residual activity: 104%
[27]
  residual activity: 102%
[28]
  residual activity: 107%
[29]
  residual activity: 94.8%
[30]
  residual activity: 98.6%
[31]
  residual activity: 97.3%
[32]
  residual activity: 104%
[33]
  residual activity: 101%

## O=C1Nc2ccccc2/C1=C1\Nc2ccccc2\C1=N/O
[1]
  residual activity: 83.3%
[2]
  residual activity: 62.6%
[3]
  residual activity: 89.4%
[4]
  residual activity: 86.2%
[5]
  residual activity: 97.8%
[6]
  residual activity: 62.3%
[7]
  residual activity: 99.5%
[8]
  residual activity: 50.2%
[9]
  residual activity: 102%
[10]
  residual activity: 110%
[11]
  residual activity: 65.6%
[12]
  residual activity: 57.3%
[13]
  residual activity: 56.2%
[14]
  residual activity: 21.3%
[15]
  residual activity: 23.8%
[16]
  residual activity: 63.4%
[17]
  residual activity: 41.1%
[18]
  residual activity: 80.2%
[19]
  residual activity: 35.7%
[20]
  residual activity: 75%
[21]
  residual activity: 105%
[22]
  residual activity: 89.5%
[23]
  residual activity: 16.5%
[34]
  residual activity: 70.9%
[24]
  residual activity: 91.6%
[25]
  residual activity: 105%
[26]
  residual activity: 84.3%
[27]
  residual activity: 73.3%
[28]
  residual activity: 19.1%
[29]
  residual activity: 86.8%
[30]
  residual activity: 100%
[31]
  residual activity: 82.2%
[32]
  residual activity: 56.4%
[33]
  residual activity: 72.9%

## CCn1cnc2c(Nc3cccc(Cl)c3)nc(N[C@@H]3CCCC[C@@H]3N)nc21
[1]
  residual activity: 82.9%
[2]
  residual activity: 79%
[3]
  residual activity: 92%
[4]
  residual activity: 56.6%
[5]
  residual activity: 90.3%
[6]
  residual activity: 93.8%
[7]
  residual activity: 97.7%
[8]
  residual activity: 96.5%
[9]
  residual activity: 85.9%
[10]
  residual activity: 102%
[11]
  residual activity: 102%
[12]
  residual activity: 87.4%
[13]
  residual activity: 95.5%
[14]
  residual activity: 105%
[15]
  residual activity: 13.2%
[16]
  residual activity: 98.6%
[17]
  residual activity: 95.2%
[18]
  residual activity: 51.8%
[19]
  residual activity: 90.7%
[21]
  residual activity: 100%
[22]
  residual activity: 105%
[23]
  residual activity: 103%
[34]
  residual activity: 89.9%
[24]
  residual activity: 70%
[25]
  residual activity: 93%
[26]
  residual activity: 103%
[27]
  residual activity: 87.7%
[28]
  residual activity: 54.9%
[29]
  residual activity: 56.8%
[30]
  residual activity: 86%
[31]
  residual activity: 76.2%
[32]
  residual activity: 94.5%
[33]
  residual activity: 96.5%

## O=C1NC(=O)C(c2c[nH]c3ccccc23)=C1c1c[nH]c2ccccc12
[1]
  residual activity: 96.9%
[2]
  residual activity: 61.5%
[3]
  residual activity: 98.3%
[4]
  residual activity: 83.1%
[5]
  residual activity: 103%
[6]
  residual activity: 85.1%
[7]
  residual activity: 99%
[8]
  residual activity: 85.3%
[9]
  residual activity: 82.4%
[11]
  residual activity: 95.4%
[12]
  residual activity: 84.9%
[13]
  residual activity: 95.3%
[14]
  residual activity: 108%
[15]
  residual activity: 79.5%
[16]
  residual activity: 101%
[17]
  residual activity: 91.9%
[18]
  residual activity: 80%
[19]
  residual activity: 90.1%
[20]
  residual activity: 92%
[21]
  residual activity: 80.8%
[22]
  residual activity: 100%
[23]
  residual activity: 27.7%
[34]
  residual activity: 97.4%
[24]
  residual activity: 77.5%
[25]
  residual activity: 101%
[26]
  residual activity: 106%
[27]
  residual activity: 88.2%
[28]
  residual activity: 55.4%
[30]
  residual activity: 94.5%
[31]
  residual activity: 86.1%
[32]
  residual activity: 101%
[33]
  residual activity: 60.8%
